Reference: PMC3800266 (Journal of the American Chemical Society, 2013)
Converted amounts (≈) assume the structure as drawn.

Experiments:
[1] = tested on: methicillin-susceptible S. aureus, ATOC 29213
[2] = tested on: methicillin-resistant S. aureus, ATCC 43300
[3] = tested on: vancomycin-susceptible enterococci, ATCC 29212
[4] = tested on: vancomycin-resistant enterococci (VanB), ATCC 51299; conditions: teicoplanin susceptible
VRE (VanA), MMX 486 [5] = conditions: vancomycin and teicoplanin resistant
[6] = tested on: vancomycin-susceptible enterococci, ATCC 29212; assay: organism not typed; conditions: read-out: MIC, VSE
[7] = tested on: vancomycin-resistant enterococci (VanB), ATCC 51299; assay: microbe, parasite or virus in culture; conditions: Enterococcus, ATCC51299|VRE, read-out: MIC, VRE (VanB)
VRE (VanA), MMX 486 [8] = assay: microbe, parasite or virus in culture; conditions: Enterococcus, read-out: MIC, VRE (VanA)

Row | Compound | MIC, MSSA [1] | MIC, MRSA [2] | MIC, VSE [3] | MIC, VRE (VanB) [4] | MIC, VRE (VanA) (VRE (VanA), MMX 486 [5]) | MIC [6] | MIC [7] | MIC (VRE (VanA), MMX 486 [8])
1 | CN[C@H](CC(C)C)C(=O)N[C@H]1C(=O)N[C@@H](CC(N)=O)C(=O)N[C@H]2C(=O)N[C@H]3C(=O)N[C@H](C(=O)N[C@H](C(=O)O)c4cc(O)cc(O)c4-c4cc3ccc4O)[C@H](O)c3ccc(c(Cl)c3)Oc3cc2cc(c3O[C@@H]2O[C@H](CO)[C@@H](O)[C@H](O)[C@H]2O[C@H]2C[C@](C)(N)[C@H](O)[C@H](C)O2)Oc2ccc(cc2Cl)[C@H]1O [Vancomycin] | 0.5 µg/mL (≈ 0.345 µM) | 1 µg/mL (≈ 0.69 µM) | 2 µg/mL (≈ 1.38 µM) | 16 µg/mL (≈ 11 µM) | >64 µg/mL |  |  | 
2 | teicoplanin A2-2 | 0.5 µg/mL | 0.5 µg/mL | 0.25 µg/mL | 0.25 µg/mL | >64 µg/mL |  |  | 
3 | CC(=O)NC[C@H]1CN(c2ccc(N3CCOCC3)c(F)c2)C(=O)O1 [Linezolid] |  |  |  |  |  | 2 µg/mL (≈ 5.93 µM) | 2 µg/mL (≈ 5.93 µM) | 2 µg/mL (≈ 5.93 µM)
4 | Teicoplanin | 0.5 µg/mL | 0.5 µg/mL | 0.25 µg/mL | 0.25 µg/mL | >64 µg/mL |  |  | 
